Tests used:
Assay in all cases: Plate-bound mCD1d fusion protein hybridoma stimulation assay (IL-2 ELISA)
Type in all cases: cell-based, mouse
[1] = tested on: VIII24 hybridoma; conditions: VIII24 diverse TCR hybridoma; plate-bound mCD1d-IgGFc2a fusion protein preincubated with lipid antigen
Source text: (§1) The CD1d-restricted T cell clones 24.7, 24.8, 24.9 (NKT cell) and 14S.6, 14S.7, 14S.10, and 14S.15 (diverse TCRs) were all derived from spleen of wild type C57BL/6 mice, as described previously (Behar, S. M. et al., J. Immunol., 162:161-7 (1999)). To generate T cell hybridomas, the activated T cells were fused to the aminopterin-sensitive BW5147 αβTCR^− thymoma cell line using PEG1500, and hybrids were selected in HAT medium (Life Technologies, Gaithersburg, Md.). Resulting TT hybridomas were tested for recognition of RMA-S cells transfected with mCD1D1 compared to untransfected RMA-S cells, as described below. […] The hybridomas are distinguished from the original T cell clones by the addition of a letter to their names. The KT/7, KT/12, KT/22, and KT/23 and Vβ/9 NKT cell hybridomas were derived from NK1.1^+ T cells enriched from spleen of C57BL/6 mice by depletion of CD8+ T cells, naive T cells, and B cells by mAbs (anti-B220, CD8, and CD62L, or anti-CD8α, CD8β, and Me114) bound to magnetic microbeads, or to plastic. The purified cells were stimulated either by the anti-CD3 KT3 mAb (KT/7, KT/12, KT/22, KT/23), or by an anti-Vβ8.2 mAb (Vβ/9), and addition of IL-2 or IL-2 and IL-7. After 4-5 days of culture the cells were fused with BW5147 thymoma cells. The VII68, VIII24, XVI9, and XV104 diverse TCR hybridomas were generated from CD4^+ T cells from class 110 mice, as described previously (Cardell, S. et al., J. Exp. Med., 182:993-1004 (1995)). The DN32D3 hybridoma was derived as described (Lantz, O., and Bendelac, A., J. Exp. Med., 180:1097-106 (1994).
(§2) To test for recognition of the mCD1d fusion protein and purified or synthetic antigens, 96 well protein A coated plates (Pierce Chemical Company) were incubated with 400-600 ng/well of the fusion protein or a negative control IgG2a antibody, RPC5.4 or UPC10, in PBS, at pH 7.2. Lipid antigens were diluted into PBS and added where specified at the indicated molar ratio of antigen to fusion protein, (when not specified the ratio was 40:1). Protein A plates containing the fusion protein and antigen were incubated 24-48 hr at 37° C., then washed three times with 200 μl/well sterile PBS, pH 7.2, and two times with 200 μl/well sterile culture medium (containing RPMI supplemented with L-glutamine and penicillin/streptomycin, Life Technologies, Gaithersburg, Md., and 10% bovine calf serum, Hyclone Laboratories, Logan, Utah). For assays in which the PI was phospholipase treated, it was first diluted into 0.01M Tris, 0.15M NaCl, pH 7.5, containing 0.25 U PI-specific phospholipase C or 0.5 U phospholipase D (Sigma, St Louis, Mo.), and incubated 30 minutes at room temperature, then added to the protein A plates as described above. For assays in which the pH was varied during antigen incubation with the fusion protein, the fusion protein and α-GalCer were diluted into a 20 mM citrate/phosphate buffer of the specified pH, which contained 0.15 M NaCl, and after incubation, the samples were neutralized by addition of 1M Tris, pH 7.5. Hybridoma cells were added to fusion protein/antigen treated plates at a concentration of 1×10^5 cells/well, in a total volume of 150 μl/well. Assays were performed using 2-6 replicate wells. In some assays, an anti-mCD1d blocking antibody (19G11) was included at a final concentration of 20 μg/ml. The plates were incubated at 37° C. for 16-20 hr, and culture supernatants were withdrawn for analysis. Each experiment was performed at least three times.
(§3) IL-2 secreted in the hybridoma stimulation assays was quantitated in a double antibody sandwich ELISA, by comparison to a standard curve of purified murine IL-2 (Pharmingen, San Diego, Calif.). Hybridoma plate stimulation supernatants (used either neat or diluted) and serially diluted IL-2 standards were added to 96 well ELISA plates coated with a rat anti-mouse IL-2 capture antibody (Pharmingen). […]

[2] = tested on: 14S.6.A hybridoma; conditions: 14S.6.A diverse TCR hybridoma; plate-bound mCD1d-IgGFc2a fusion protein preincubated with lipid antigen
Source text: as §1, §2, §3

[3] = tested on: 14S.7.N hybridoma; conditions: 14S.7.N diverse TCR hybridoma; plate-bound mCD1d-IgGFc2a fusion protein preincubated with lipid antigen
Source text: as §1, §2, §3

[4] = tested on: DN32D3 hybridoma; conditions: DN32D3 NKT hybridoma; plate-bound mCD1d-IgGFc2a fusion protein preincubated with lipid antigen
Source text: as §1, §2, §3

[5] = tested on: KT/12 hybridoma; conditions: KT/12 NKT hybridoma; plate-bound mCD1d-IgGFc2a fusion protein preincubated with lipid antigen
Source text: as §1, §2, §3

[6] = tested on: KT/7 hybridoma; conditions: KT/7 NKT hybridoma; plate-bound mCD1d-IgGFc2a fusion protein preincubated with lipid antigen
Source text: as §1, §2, §3

[7] = tested on: XV19 hybridoma; conditions: XV19 diverse TCR hybridoma; plate-bound mCD1d-IgGFc2a fusion protein preincubated with lipid antigen
Source text: as §1, §2, §3

[8] = tested on: XV104 hybridoma; conditions: XV104 diverse TCR hybridoma; plate-bound mCD1d-IgGFc2a fusion protein preincubated with lipid antigen
Source text: as §1, §2, §3

[9] = tested on: 24.7.C hybridoma; conditions: 24 7.C NKT hybridoma; plate-bound mCD1d-IgGFc2a fusion protein preincubated with lipid antigen
Source text: as §1, §2, §3

[10] = tested on: VII68 hybridoma; conditions: VII68 diverse TCR hybridoma; plate-bound mCD1d-IgGFc2a fusion protein preincubated with lipid antigen
Source text: as §1, §2, §3

[11] = tested on: KT/23 hybridoma; conditions: KT/23 NKT hybridoma; plate-bound mCD1d-IgGFc2a fusion protein preincubated with lipid antigen
Source text: as §1, §2, §3

[12] = tested on: 24.9.E hybridoma; conditions: 24.9 E NKT hybridoma; plate-bound mCD1d-IgGFc2a fusion protein preincubated with lipid antigen
Source text: as §1, §2, §3

[13] = tested on: Vβ/9 hybridoma; conditions: Vβ/9 NKT hybridoma; plate-bound mCD1d-IgGFc2a fusion protein preincubated with lipid antigen
Source text: as §1, §2, §3

[14] = tested on: 14S.15.A hybridoma; conditions: 14S.15.A diverse TCR hybridoma; plate-bound mCD1d-IgGFc2a fusion protein preincubated with lipid antigen
Source text: as §1, §2, §3

[15] = tested on: 14S.10.C hybridoma; conditions: 14S.10 C diverse TCR hybridoma; plate-bound mCD1d-IgGFc2a fusion protein preincubated with lipid antigen
Source text: as §1, §2, §3

[16] = tested on: KT/22 hybridoma; conditions: KT/22 NKT hybridoma; plate-bound mCD1d-IgGFc2a fusion protein preincubated with lipid antigen
Source text: as §1, §2, §3

[17] = tested on: 24.8.A hybridoma; conditions: for IL-2 secretion: 24.8 A NKT hybridoma, plate-bound mCD1d-IgGFc2a fusion protein preincubated with lipid antigen
Source text: as §1, §2
IL-2 secreted in the hybridoma stimulation assays was quantitated in a double antibody sandwich ELISA, by comparison to a standard curve of purified murine IL-2 (Pharmingen, San Diego, Calif.). Hybridoma plate stimulation supernatants (used either neat or diluted) and serially diluted IL-2 standards were added to 96 well ELISA plates coated with a rat anti-mouse IL-2 capture antibody (Pharmingen).

Substance | IL-2 secretion [1] | IL-2 secretion [2] | IL-2 secretion [3] | IL-2 secretion [4] | IL-2 secretion [5] | IL-2 secretion [6] | IL-2 secretion [7] | IL-2 secretion [8] | IL-2 secretion [9] | IL-2 secretion [10] | IL-2 secretion [11] | IL-2 secretion [12] | IL-2 secretion [13] | IL-2 secretion [14] | IL-2 secretion [15] | IL-2 secretion [16] | IL-2 secretion [17] | IL-2 response to mCD1d fusion protein pre-treated with purified or synthetic lipid ([17]; 24.8.A hybridoma, compared to untreated or buffer treated fusion protein)
disialoganglioside [GD1a] | 0 (A “0” indicates a mean of less than 50 pg/ml IL-2 was secreted) | 0 (A “0” indicates a mean of less than 50 pg/ml IL-2 was secreted) | 0 (A “0” indicates a mean of less than 50 pg/ml IL-2 was secreted) | 0 (A “0” indicates a mean of less than 50 pg/ml IL-2 was secreted) | 0 (A “0” indicates a mean of less than 50 pg/ml IL-2 was secreted) | 0 (A “0” indicates a mean of less than 50 pg/ml IL-2 was secreted) | 0 (A “0” indicates a mean of less than 50 pg/ml IL-2 was secreted) | 0 (A “0” indicates a mean of less than 50 pg/ml IL-2 was secreted) | 0 (A “0” indicates a mean of less than 50 pg/ml IL-2 was secreted) | 0 (A “0” indicates a mean of less than 50 pg/ml IL-2 was secreted) | 0 (A “0” indicates a mean of less than 50 pg/ml IL-2 was secreted) | 0 (A “0” indicates a mean of less than 50 pg/ml IL-2 was secreted) | 0 (A “0” indicates a mean of less than 50 pg/ml IL-2 was secreted) | 0 (A “0” indicates a mean of less than 50 pg/ml IL-2 was secreted) | 0 (A “0” indicates a mean of less than 50 pg/ml IL-2 was secreted) | 0 (A “0” indicates a mean of less than 50 pg/ml IL-2 was secreted) | 0 (A “0” indicates a mean of less than 50 pg/ml IL-2 was secreted) | 
monogalactosyl diglyceride [MGDG] | 0 (A “0” indicates a mean of less than 50 pg/ml IL-2 was secreted) | 0 (A “0” indicates a mean of less than 50 pg/ml IL-2 was secreted) | 0 (A “0” indicates a mean of less than 50 pg/ml IL-2 was secreted) | 0 (A “0” indicates a mean of less than 50 pg/ml IL-2 was secreted) | 0 (A “0” indicates a mean of less than 50 pg/ml IL-2 was secreted) | 0 (A “0” indicates a mean of less than 50 pg/ml IL-2 was secreted) | 0 (A “0” indicates a mean of less than 50 pg/ml IL-2 was secreted) | 0 (A “0” indicates a mean of less than 50 pg/ml IL-2 was secreted) | 0 (A “0” indicates a mean of less than 50 pg/ml IL-2 was secreted) | 0 (A “0” indicates a mean of less than 50 pg/ml IL-2 was secreted) | 0 (A “0” indicates a mean of less than 50 pg/ml IL-2 was secreted) | 0 (A “0” indicates a mean of less than 50 pg/ml IL-2 was secreted) | 0 (A “0” indicates a mean of less than 50 pg/ml IL-2 was secreted) | 0 (A “0” indicates a mean of less than 50 pg/ml IL-2 was secreted) |  | 0 (A “0” indicates a mean of less than 50 pg/ml IL-2 was secreted) | + (“+” indicates 50-250 pg/ml) | 
phosphatidylglycerol [PG] | 0 (A “0” indicates a mean of less than 50 pg/ml IL-2 was secreted) | + (“+” indicates 50-250 pg/ml) | + (“+” indicates 50-250 pg/ml) | 0 (A “0” indicates a mean of less than 50 pg/ml IL-2 was secreted) | 0 (A “0” indicates a mean of less than 50 pg/ml IL-2 was secreted) | 0 (A “0” indicates a mean of less than 50 pg/ml IL-2 was secreted) | 0 (A “0” indicates a mean of less than 50 pg/ml IL-2 was secreted) | 0 (A “0” indicates a mean of less than 50 pg/ml IL-2 was secreted) | 0 (A “0” indicates a mean of less than 50 pg/ml IL-2 was secreted) | 0 (A “0” indicates a mean of less than 50 pg/ml IL-2 was secreted) | 0 (A “0” indicates a mean of less than 50 pg/ml IL-2 was secreted) | + (“+” indicates 50-250 pg/ml) | 0 (A “0” indicates a mean of less than 50 pg/ml IL-2 was secreted) | + (“+” indicates 50-250 pg/ml) |  | 0 (A “0” indicates a mean of less than 50 pg/ml IL-2 was secreted) | ++ (“++” indicates 250-1000 pg/ml) | dose dependent responses

Source: US20020071842A1, “Soluble CD1 compositions and uses thereof” (priority 2000, published 2002)
